Patent publication US8394356B2, “Diagnostic imaging contrast agents with extended blood retention” (Lantheus Medical Imaging, Inc., priority 1995, dated 2013)
Marks after values point to notes of the source that are not given here.

Tests used:
[1] = Rat plasma pharmacokinetic experiment (Gd153 radiolabeled complexes, tail vein injection)
Description: In this application, blood half-life data, as measured by AUC-conc., represents experimentation in rats.
(§1) Rats were injected intravenously (tail vein) with 0.1 mmol/kg of the Gd^153 radiolabeled complexes. Plasma concentrations were determined over 30 minutes and fit to a standard bi-exponential two-compartment model. […] In addition, the 1/T1s of the plasma samples were recorded (at 20 MHZ, 37° C.) to assess the efficacy as MRI agents.

[2] = biological target: T1, HSA (Homo sapiens, UniProt P02768); test: HSA binding by equilibrium dialysis or ultrafiltration, 4.5% weight/volume HSA, pH 7.4 buffer
Excerpt: (§2) In this application, the measurement of percent binding of the contrast agent to HSA has an error of approximately ±5%.

[3] = 1/T1 of rat plasma samples after intravenous injection (efficacy as MRI agents); type: in vivo; conditions: rats, 0.1 mmol/kg i.v., plasma 1/T1 at 20 MHZ, 37° C., first 10 minutes
Description: as §1

[4] = biological target: T1, HSA
Excerpt: as §2

T1 sequence (P02768 25-609): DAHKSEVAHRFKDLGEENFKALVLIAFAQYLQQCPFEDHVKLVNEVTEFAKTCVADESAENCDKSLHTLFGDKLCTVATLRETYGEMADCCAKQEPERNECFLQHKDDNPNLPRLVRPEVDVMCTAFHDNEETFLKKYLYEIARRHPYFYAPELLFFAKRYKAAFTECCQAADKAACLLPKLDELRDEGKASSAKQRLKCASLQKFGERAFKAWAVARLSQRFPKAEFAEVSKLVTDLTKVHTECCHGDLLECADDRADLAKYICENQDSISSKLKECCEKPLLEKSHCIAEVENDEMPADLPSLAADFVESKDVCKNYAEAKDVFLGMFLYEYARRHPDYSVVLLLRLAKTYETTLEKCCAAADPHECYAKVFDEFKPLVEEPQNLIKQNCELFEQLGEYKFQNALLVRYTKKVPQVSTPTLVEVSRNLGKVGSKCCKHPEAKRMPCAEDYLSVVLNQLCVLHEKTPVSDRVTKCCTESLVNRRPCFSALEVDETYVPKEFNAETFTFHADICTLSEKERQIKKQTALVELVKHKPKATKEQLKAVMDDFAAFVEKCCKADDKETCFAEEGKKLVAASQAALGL

AUC-conc. (for 0 to 10 minutes) greater than that of analogue ([1]; 0 to 10 minutes, versus analogue drawing 27)	fraction unbound ([2]; human, 4.5% weight/volume human serum albumin (HSA) solution)	SMILES	AUC-1/T1 [3]	binding to HSA (in words) [4]	t1/2 ([1]; elimination half-life, rats, 0.1 mmol/kg i.v. tail vein, plasma over 30 min, bi-exponential two-compartment model)	blood half-life ([1]; rats)	AUC-conc ([1]; rats, 0.1 mmol/kg i.v., first 10 minutes, error approx ±10%)	AUC-conc. from 0 to 10 minutes ([1]; two rats, 0.1 mmol/kg tail vein, Gd153-labeled, calculated with KaleidaGraph)	% bound to HSA ([2]; 4.5% HSA, error approx ±5%)
≥ 100%	< 0.05	O=C(O)CN(CCN(CC(=O)O)CC(COP(=O)(O)OCCCCCCCCCCc1ccccc1)N(CC(=O)O)CC(=O)O)CC(=O)O (stereo not drawn)							
		O=C([O-])CN(CCN(CC(=O)[O-])CC(=O)O)CCN(CC(=O)[O-])CC(=O)O.[Gd+3] [DTPA, gadolinium diethylenetriamine-pentaacetic acid]	27 s^−1 * min	little or no binding to HSA	15.0 min	15 min	3.5 mM·min	3.5 mM·min	0%
